In patent US8765748B2, “Indazolyl, benzimidazolyl, benzotriazolyl substituted indolinone derivatives as kinase inhibitors useful in the treatment of cancer” (University Health Network, priority 2007, dated 2014):
Where two headings read alike, the source gives them in different places.

Legend:
human PLK4 = target: T1, human PLK4 (Homo sapiens, UniProt O00444); assay: PLK4 Inhibition Assay (indirect ELISA); assay type: biochemical; settings: 15 μM ATP, 4 nM GST-PLK4; read-out: PLK4 IC50 Ranges
T1 construct: amino terminal GST fusion of residues 1-391 of human PLK4; made in house; host or cells: E. coli
T1 sequence (O00444 1-391): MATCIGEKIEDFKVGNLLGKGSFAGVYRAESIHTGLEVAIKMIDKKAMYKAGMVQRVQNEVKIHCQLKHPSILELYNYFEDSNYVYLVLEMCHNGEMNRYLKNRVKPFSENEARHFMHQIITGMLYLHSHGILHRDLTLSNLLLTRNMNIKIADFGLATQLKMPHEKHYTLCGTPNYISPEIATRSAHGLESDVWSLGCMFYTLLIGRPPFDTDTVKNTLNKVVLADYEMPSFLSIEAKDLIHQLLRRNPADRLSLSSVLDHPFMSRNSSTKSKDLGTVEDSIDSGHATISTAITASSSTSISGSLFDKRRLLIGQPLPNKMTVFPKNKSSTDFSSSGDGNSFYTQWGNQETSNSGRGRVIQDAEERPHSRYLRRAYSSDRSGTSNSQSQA
How it was run: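 IC50 values, from 4-point logistic fitting, reflect remaining activity measured by indirect ELISA. Enzyme was GST-PLK4 treated with lambda phosphatase and given a 15-minute pre-incubation with compound before ATP start.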

PLK1 = target: T2, PLK1 (Homo sapiens, UniProt P53350); assay: PLK1 Inhibition Assay (Z-Lyte); assay type: biochemical; settings: for inhibition at 10 µM: 10 μM compound, read-out: PLK1 relative inhibition percentage at a dose of 10 μM; for IC50: 25 μM ATP, 8 nM PLK1, read-out: PLK1 IC50 Ranges
T2 construct: purchased Invitrogen PV3501
Protocol: PLK1 inhibition was determined using the Z-Lyte assay kit from Invitrogen (cat #PV3802). […] The % inhibition values were determined according to the manufacturer's directions and IC50 values were obtained using a non-linear 4 point logistic curve fit (XLfit4, IDBS)

PLK2 = target: T3, PLK2 (Homo sapiens, UniProt Q9NYY3); assay: PLK2 Inhibition Assay (Z-Lyte); assay type: biochemical; settings: 10 μM compound; read-out: PLK2 relative inhibition percentage at a dose of 10 μM
T3 construct: purchased Invitrogen PV4204
Protocol: (§1) PLK2 inhibition was determined using the Z-Lyte assay kit from Invitrogen (cat #PV3802). The assay was performed using the recommended manufacturer's instructions with 60 μM ATP and 133 nM PLK2 (Invitrogen cat #PV4204). The % inhibition values were determined according to the manufacturer's directions and IC50 values were obtained using a non-linear 4 point logistic curve fit (XLfit4, IDBS)

Aurora A = target: T4, Aurora A (Homo sapiens, UniProt O14965); assay: Aurora A Inhibition Assay (Z-Lyte); assay type: biochemical; settings: for IC50: 20 μM ATP, 12 nM Aurora A, read-out: Aurora A IC50 Ranges
T4 construct: purchased Invitrogen PV3612
T4 sequence (O14965 1-403): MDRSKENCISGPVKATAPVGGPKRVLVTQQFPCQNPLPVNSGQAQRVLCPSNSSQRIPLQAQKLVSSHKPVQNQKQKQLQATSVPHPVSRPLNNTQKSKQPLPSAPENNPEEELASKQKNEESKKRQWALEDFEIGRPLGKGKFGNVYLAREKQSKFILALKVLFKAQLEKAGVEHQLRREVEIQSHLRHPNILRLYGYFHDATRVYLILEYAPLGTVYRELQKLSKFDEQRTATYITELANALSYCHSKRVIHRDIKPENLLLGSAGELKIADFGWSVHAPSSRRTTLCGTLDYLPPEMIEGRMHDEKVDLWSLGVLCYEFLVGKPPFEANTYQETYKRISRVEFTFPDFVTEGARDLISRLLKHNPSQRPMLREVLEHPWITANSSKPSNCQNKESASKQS
Protocol: as §1, with “Aurora A” for “PLK2”, “Invitrogen.” for “Invitrogen (cat #PV3802).”, “20” for “60”, “12” for “133”, “#PV3612).” for “#PV4204).”

[1] = test system: MCF-7 luminal breast cancer cell line; assay: Cell growth inhibition, Sulforhodamine B assay (SRB); assay type: cell-based; settings: Homo sapiens
Protocol: (§2) Breast cancer cells (MCF-7, MDA-MB-468, HCC1954), colon cancer cells (SW620) and lung cancer cells (A549), together with human mammary epithelial primary cells (HMEC), were seeded (1000 to 4000 per 80 μl per well depending on the cell growth rate) into 96 well plates, 24 hours before compound overlay. Compounds were prepared as 10 mM stock solutions in 100% DMSO which were diluted with DMEM (Dulbecco's Modified Eagle's Medium) cell growth Medium (Invitrogen, Burlington, ON, Canada) containing 10% FBS (Fetal Bovine Serum) to concentrations ranging from 50 nM to 250 μM. Aliquots (20 μl) from each concentration were overlaid to 80 μl of the pre-seeded cells in the 96 well plates to make final concentrations of 10 nM to 50 μM. The cells were cultured for 5 days before the Sulforhodamine B assay (SRB) was performed to determine the compound's cell growth inhibition activity.
(§3) Sulforhodamine B (purchased from Sigma, Oakville, ON, Canada) is a water-soluble dye that binds to the basic amino acids of the cellular proteins. Thus, colorimetric measurement of the bound dye provides an estimate of the total protein mass that is related to the cell number. the cells are fixed in situ by gently aspirating off the culture media and adding 50 μl ice cold 10% Tri-chloroacetic Acid (TCA) per well and incubate at 4° C. for 30-60 min, The plates are washed with water five times and allowed to air dry for 5 min. Addition of 50 μl 0.4% (w/v) SRB solution in 1% (v/v) acetic acid to each well and incubatation for 30 min at RT completes the staining reaction. Following staining, plates are washed four times with 1% acetic acid to remove unbound dye and then allowed to air dry for 5 min. The stain is solubilized with 100 μl of 10 mM Tris pH10.5 per well. Absorbance is read at 570 nm.
(§4) The percentage (%) of relative growth inhibition was calculated by comparing to DMSO treated only cells (100%). GI50's were determined for compounds with cytotoxic activity. The GI50 was calculated using GraphPad PRISM software (GraphPad Software, Inc., San Diego, Calif., USA).

[2] = test system: MDA-MB-468 basal breast cancer cell line; assay: as above; assay type: cell-based; settings: Homo sapiens
Protocol: as §2, §3, §4

[3] = test system: T47 D breast cancer cell line; assay: Cell growth inhibition, SRB assay, extended panel; assay type: cell-based; settings: Homo sapiens, T47D; read-out: GI50 on T47D Breast cancer cell line
Protocol: as §2, §3, §4
In addition to the cell lines tested as described above, selected compounds have been assayed against an extended panel. […] The sulforhodamine B assay (SRB) described above was use to assay test compounds against the extended panel (Table 9).

Aurora B = target: T5, Aurora B (Homo sapiens, UniProt Q96GD4); assay: Aurora B Inhibition Assay (Z-Lyte); assay type: biochemical; settings: 128 μM ATP, 28 nM Aurora B; read-out: Aurora B IC50 Ranges
T5 construct: purchased Invitrogen PV3970
Protocol: as §1, with “Aurora B” for “PLK2”, “Invitrogen.” for “Invitrogen (cat #PV3802).”, “128” for “60”, “28” for “133”, “#PV3970).” for “#PV4204).”

A549 lung cancer cells = assay: Cell growth inhibition, Sulforhodamine B assay (SRB); assay type: cell-based; settings: Homo sapiens, A549, 120 h, 5 days culture, read-out: Cell Line GI50 Range, A-549
Protocol: as §2, §3, §4

[4] = test system: HCC1954 basal breast cancer cell line; assay: as above; assay type: cell-based; settings: Homo sapiens, HCC1954, 120 h, 5 days culture, read-out: Cell Line GI50 Range, HCC-1954
Protocol: as §2, §3, §4

SW620 colon cancer cells = assay: as above; assay type: cell-based; settings: Homo sapiens, SW-620, 120 h, 5 days culture, read-out: Cell Line GI50 Range, SW-620
Protocol: as §2, §3, §4

[5] = test system: human mammary epithelial primary cells (HMEC); assay: as above; assay type: cell-based; settings: 120 h, 5 days culture, read-out: Cell Line GI50 Range, HMEC
Protocol: as §2, §3, §4

[6] = MCF7, read-out: GI50 on MCF-7 Breast cancer cell line
[7] = MDA-MB-468, read-out: GI50 on MDA-MB-468 Breast cancer cell line
[8] = MCF7, 120 h, 5 days culture, SRB, read-out: Cell Line GI50 Range, MCF-7
[9] = MDA-MB-468, 120 h, 5 days culture, SRB, read-out: Cell Line GI50 Range, MDA-MB-468

T2 sequence (P53350 whole entry): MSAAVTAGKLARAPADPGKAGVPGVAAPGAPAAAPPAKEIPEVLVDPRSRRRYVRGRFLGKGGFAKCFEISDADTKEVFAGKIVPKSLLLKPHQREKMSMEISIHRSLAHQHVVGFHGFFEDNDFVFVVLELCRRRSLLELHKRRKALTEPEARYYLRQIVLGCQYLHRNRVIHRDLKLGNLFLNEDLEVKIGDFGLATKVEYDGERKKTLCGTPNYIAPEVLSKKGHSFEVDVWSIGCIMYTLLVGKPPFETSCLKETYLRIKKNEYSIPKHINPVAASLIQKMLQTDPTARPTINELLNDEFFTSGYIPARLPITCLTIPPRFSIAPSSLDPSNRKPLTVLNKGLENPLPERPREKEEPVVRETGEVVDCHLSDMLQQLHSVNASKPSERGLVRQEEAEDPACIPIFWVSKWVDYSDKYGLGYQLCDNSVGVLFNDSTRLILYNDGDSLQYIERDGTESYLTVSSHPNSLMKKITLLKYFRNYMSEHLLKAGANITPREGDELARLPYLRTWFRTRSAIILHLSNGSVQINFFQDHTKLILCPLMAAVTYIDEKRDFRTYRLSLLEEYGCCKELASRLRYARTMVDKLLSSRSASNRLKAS
T3 sequence (Q9NYY3 whole entry): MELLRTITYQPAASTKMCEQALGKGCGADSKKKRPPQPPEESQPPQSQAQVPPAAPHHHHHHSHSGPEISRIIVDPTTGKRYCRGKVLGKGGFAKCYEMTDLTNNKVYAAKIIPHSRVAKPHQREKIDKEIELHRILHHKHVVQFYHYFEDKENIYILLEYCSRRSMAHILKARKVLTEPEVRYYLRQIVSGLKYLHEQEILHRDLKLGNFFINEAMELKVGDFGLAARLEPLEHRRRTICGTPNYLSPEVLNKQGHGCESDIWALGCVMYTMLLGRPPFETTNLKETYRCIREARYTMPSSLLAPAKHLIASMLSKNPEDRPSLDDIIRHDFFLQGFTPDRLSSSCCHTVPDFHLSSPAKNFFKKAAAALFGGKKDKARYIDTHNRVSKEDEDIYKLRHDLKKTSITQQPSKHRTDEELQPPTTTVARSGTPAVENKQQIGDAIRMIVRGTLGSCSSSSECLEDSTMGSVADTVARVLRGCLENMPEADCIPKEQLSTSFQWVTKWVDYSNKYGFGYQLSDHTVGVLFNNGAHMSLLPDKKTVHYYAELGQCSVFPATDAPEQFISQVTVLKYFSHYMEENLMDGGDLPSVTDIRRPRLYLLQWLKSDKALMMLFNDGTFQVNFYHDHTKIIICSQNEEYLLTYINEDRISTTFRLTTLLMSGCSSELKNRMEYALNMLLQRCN
T5 sequence (Q96GD4 whole entry): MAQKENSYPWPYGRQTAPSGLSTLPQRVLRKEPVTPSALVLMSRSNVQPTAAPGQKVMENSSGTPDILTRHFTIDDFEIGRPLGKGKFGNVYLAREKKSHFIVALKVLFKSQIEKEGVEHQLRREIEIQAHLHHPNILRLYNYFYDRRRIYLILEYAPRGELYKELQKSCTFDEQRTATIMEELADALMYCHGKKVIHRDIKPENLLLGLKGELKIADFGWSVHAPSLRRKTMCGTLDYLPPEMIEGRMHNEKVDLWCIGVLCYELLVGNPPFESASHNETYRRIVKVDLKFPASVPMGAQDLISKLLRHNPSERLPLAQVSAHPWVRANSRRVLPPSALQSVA

Compound | IC50 (human PLK4) | inhibition at 10 µM (PLK1) | inhibition at 10 µM (PLK2) | IC50 (Aurora A) | GI50 [1, 6] | GI50 [2, 7] | GI50 [3] | IC50 (Aurora B) | GI50 (A549 lung cancer cells) | GI50 [4] | GI50 [1, 8] | GI50 [2, 9] | GI50 (SW620 colon cancer cells) | inhibition at 10 µM (Aurora A; 10 μM compound, read-out: Aurora A relative inhibition percentage at a dose of 10 μM) | IC50 (PLK1) | GI50 [5]
CNS(=O)(=O)c1ccc2c(c1)C(=Cc1ccc3cn[nH]c3c1)C(=O)N2 (mixture of isomers) [Example A9, (E and Z)-3-((1H-indazol-6-yl)methylene)-N-methyl-2-oxoindoline-5-sulfonamide] | < 5 µM |  |  |  | > 50 µM | > 50 µM | > 50 µM |  |  |  |  |  |  |  | < 5 µM | 
CNS(=O)(=O)c1ccc2c(c1)C(=Cc1ccc3[nH]nnc3c1)C(=O)N2 [Example A7, 3-((1H-benzo[d][1,2,3]triazol-5-yl)methylene)-N-methyl-2-oxoindoline-5-sulfonamide] | < 5 µM |  |  |  | > 50 µM | > 50 µM | > 50 µM |  |  |  |  |  |  |  | 5 to 50 µM | 
O=C1Nc2ccccc2/C1=C\c1ccc2c(-c3cccs3)n[nH]c2c1 [Example A91, (E)-3-((3-(thiophen-2-yl)-1H-indazol-6-yl)methylene)indolin-2-one] | < 5 µM | < 50% | < 50% | 5 to 50 µM |  |  |  | < 5 µM |  | < 5 µM | < 5 µM | < 5 µM | < 5 µM |  |  | 5 to 20 µM

Further lines, with some results ahead:

IC50 (human PLK4) | inhibition at 10 µM (PLK1) | inhibition at 10 µM (PLK2) | IC50 (Aurora A) | GI50 [1, 6] | GI50 [2, 7] | GI50 [3] | IC50 (Aurora B) | GI50 (A549 lung cancer cells) | GI50 [4] | GI50 [1, 8] | GI50 [2, 9] | GI50 (SW620 colon cancer cells) | inhibition at 10 µM (Aurora A; 10 μM compound, read-out: Aurora A relative inhibition percentage at a dose of 10 μM) | IC50 (PLK1) | Compound | GI50 [5]
< 5 µM | < 50% | < 50% | < 5 µM | > 50 µM | > 50 µM | > 50 µM |  |  |  |  |  |  |  |  | CCOC(=O)/C=C/c1n[nH]c2cc(/C=C3/C(=O)Nc4ccc(OC)cc43)ccc12 [Example A111, (E)-ethyl 3-(6-((E)-(5-methoxy-2-oxoindolin-3-ylidene)methyl)-1H-indazol-3-yl)acrylate] | 
< 5 µM | < 50% | < 50% | < 5 µM |  |  |  | < 5 µM | > 50 µM | 5 to 20 µM | < 5 µM | < 5 µM | < 5 µM |  |  | O=C1Nc2ccc(Cl)cc2/C1=C\c1ccc2c(/C=C/c3ccncc3)n[nH]c2c1 [Example A84, (E)-5-chloro-3-((3-((E)-2-(pyridin-4-yl)vinyl)-1H-indazol-6-yl)methylene)indolin-2-one] | > 50 µM
 | < 50% | < 50% |  |  |  |  |  | 5 to 20 µM | 5 to 20 µM | < 5 µM | < 5 µM | < 5 µM | > 50% |  | Cc1ncsc1/C=C/c1n[nH]c2cc(/C=C3/C(=O)Nc4ccccc43)ccc12 [Example A103, (E)-3-((3-((E)-2-(4-methylthiazol-5-yl)vinyl)-1H-indazol-6-yl)methyl-ene)indolin-2-one] | > 50 µM
